Earlier results in US20050232866A1, “Biochemically-activated contrast agents for magnetic resonance imaging” (Alerion Biomedical Inc., priority 2004, published 2005).

Key:
[1] = Gd(III) chelate
[2] = physiological pH

## O=C([O-])CN(CCN(CC(=O)[O-])CC(=O)O)CCN(CC(=O)[O-])CC(=O)O.[Gd+3] [Gd(DTPA)]
[1]
  stability constant (formation constant) logK: 22.4

## O=C([O-])CN1CCN(CC(=O)[O-])CCN(CC(=O)O)CCN(CC(=O)[O-])CC1.[Gd+3] [Gd-DOTA]
[1]
  stability constant (formation constant) logK: 28.5
[2]
  dissociation kinetics: very slow dissociation kinetics
